Assays:
PKC-τ = biological target: T1, PKC-τ (Homo sapiens, UniProt P41743); experiment: PKC-iota levels in prostate cells by Western blot after treatment; format: cell-based; details: 72 hours after treatment
T1 construct: endogenous in cells; host or cells: DU-145
T1 sequence (P41743 1-596): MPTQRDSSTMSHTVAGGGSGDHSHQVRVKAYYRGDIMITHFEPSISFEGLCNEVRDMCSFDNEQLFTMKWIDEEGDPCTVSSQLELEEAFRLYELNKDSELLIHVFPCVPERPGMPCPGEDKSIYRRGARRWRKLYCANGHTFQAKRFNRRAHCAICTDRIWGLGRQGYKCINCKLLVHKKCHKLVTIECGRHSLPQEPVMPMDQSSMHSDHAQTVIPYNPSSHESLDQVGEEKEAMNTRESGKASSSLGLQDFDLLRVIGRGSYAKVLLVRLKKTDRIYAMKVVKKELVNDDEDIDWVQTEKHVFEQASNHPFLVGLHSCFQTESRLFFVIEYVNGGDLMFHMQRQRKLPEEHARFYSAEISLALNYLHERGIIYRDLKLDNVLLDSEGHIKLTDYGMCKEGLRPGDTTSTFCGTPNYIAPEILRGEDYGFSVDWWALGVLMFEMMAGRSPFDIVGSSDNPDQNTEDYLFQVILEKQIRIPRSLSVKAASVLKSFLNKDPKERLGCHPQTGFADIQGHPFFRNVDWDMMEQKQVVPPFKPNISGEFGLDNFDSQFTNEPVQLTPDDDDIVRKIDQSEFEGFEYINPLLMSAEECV
Protocol: Protein was harvested from cultured cells using Lysis Buffer purchased from Cell Signaling. Protein content was measured according to the Bradford method. Tissue extracts containing equal amounts of protein in each lane were run on SDS-PAGE gels. The tissue lysates (50 μg) were Western blotted for PKC-τ (10 μg, 1:2500 dilution): and PKC-ζ (5 μg, 1:4000 dilution) and β-actin (10 μg, 1:3000 dilution).
(§1) Western blots were developed on the Protein Simple Flour Chem M. Accompanied by the Alpha view software for analysis.
ICA-1 was used as a PKC-iota inhibitor. […] The cells were counted before and after the treatments and a statistical analysis was performed. Following cell counting, the cells were lysed and levels of PKC-iota and PKC-zeta were measured by Western blotting and immunoprecipitation.

RWPE cells = experiment: Cell proliferation assay / cell counting, RWPE cells; format: cell-based, human; details: 10 μM, non-malignant cells (RWPE)
Protocol: (§2) RWPE epithelial cells and DU-145 human prostate carcinoma cells were purchased from American Type Culture Collection (ATCC). PC-3 cells were acquired from Moffit Cancer center. The cells were grown as a monolayer in a T25 tissue culture flask with 5 mL of growth medium and maintained in a 37 C incubator with 5% CO2. The E-MEM and F-12 growth media were obtained from ATCC. The medium was supplemented with 10% fetal bovine serum (FBS) and a mix of the antibiotics Penicillin (10,000 IU) and Streptomycin (10,000 μg/ml) in a 100× concentration which was purchased from Corning.
(§3) RWPE, DU 145 and PC-3 cells were cultured in a T25 cell culture flasks. 20,000 cells were seeded into each. […] The treatment was repeated over the course of 72 hours and samples were taken at 24 hour intervals.
(§4) RWPE, DU 145, and PC-3 cells were cultured in a T25 cell culture flasks. At assigned intervals the cells were trypsonized and put into a 1.5 mL microcentrifuge tube. Cells were inverted gently to keep the solution homogeneous and then the Cell Scepter by Millipore was used to measure cell numbers.

Cytochrome C = experiment: Apoptotic marker Cytochrome C by Western blot; format: cell-based, human
DU-145 cells = experiment: Cell proliferation assay / cell counting, DU-145 cells; format: cell-based, human
Protocol: as §2, §3, §4

Survivin = experiment: Apoptotic marker Survivin by Western blot; format: cell-based, human
PC-3 cells = experiment: Cell proliferation assay / cell counting, PC-3 cells; format: cell-based, human
Protocol: as §2, §3, §4

NF-kB = NF-kB translocation after TNF-α exposure (cell subfractionation); format: cell-based, human; details: DU-145 and PC-3 cells (cell line not specified), 10 μM, vs untreated control
Protocol: 20,000 cells were seeded into each.
as §1

[1] = DU-145 cells, 72 hours of treatment
[2] = RWPE cells, 72 hours of treatment

Compound: NC(=O)c1ncn([C@H]2C[C@@H](COP(=O)(O)O)[C@H](O)[C@@H]2O)c1N [ICA-1]
- average decrease in PKC-τ (PKC-τ; DU-145 cells): 46%
- decrease in PKC-τ (PKC-τ; PC-3 cells): 40%
- decrease in cell population (dose-response curve) (RWPE cells): not having a significant decrease
- increase in Cytochrome C (Cytochrome C; [1]): ~3 fold
- increase in Cytochrome C (Cytochrome C; PC-3 cells): 2 fold
- increase of Cytochrome C (Cytochrome C; [2]): 8%
- decrease in cell population (dose-response curve) (DU-145 cells; 10 μM, malignant cells (DU-145)): statistically significant decrease in population
- reduction in cell growth compared to untreated cells (DU-145 cells; DU-145 cells): 19%
- reduction of Survivin (in words) (Survivin; [1]): reduction of Survivin by half
- decrease in Survivin (Survivin; PC-3 cells): 40%
- decrease in Survivin (Survivin; [2]): 10%
- average decline of cell population (PC-3 cells): 18%
- decrease of nucleic NFkB (NF-kB): 5 fold

Reference: patent publication US20170304223A1, “METHOD OF TREATING PROSTATE CANCER USING A PKC INHIBITOR” (priority 2016, published 2017)
